{
  "source": "patent US8951982B2",
  "about": "“Methods and compositions for the treatment of eye disorders with increased intraocular pressure” (Sylentis S.A.U., priority 2004, dated 2015)",
  "key": {"[1]": {"system": "Normotensive New Zealand White rabbits", "test": "In vivo rabbit model of IOP (contact tonometer)", "conditions": "for IOP Reduction (% of saline control): mean normalized maximum percentage of IOP reduction ± SD, topical to corneal surface, once daily for four consecutive days; for decrease of IOP over a saline control: figure legends (FIGS. 5-8), 256 μg dose of siRNA per administration", "protocol": "Normotensive New Zealand White rabbits (males, 2-3 kg) were used in the in vivo assays. The animals were kept in individual cages with free access to food and water. Animals were submitted to artificial 12 hours light/darkness cycles to avoid uncontrolled circadian oscillations of IOP and all experiments were performed at the same time of day to control for any fluctuations in IOP due to circadian oscillations. Animal handling and treatment were carried out in accordance with the European Communities Council Directive (86/609/EEC) and the statement of the Association for Research in Vision and Ophthalmology on the Use of Animals in Ophthalmic and Vision Research. Each animal was used for only one experiment.\nIOP measurements were done using a contact tonometer (TonoPen XL, Mentor, Norwell, Mass.) due to past success of measuring intraocular pressures within the range of 3 to 30 mm Hg in rabbits (Abrams et al., 1996, Invest Ophthalmol Vis Sci. 37:940-4). Measurements were performed by delicately applying the tonometer's sensor to the corneal surface of the animal. All measurements fell within the 3 to 30 mm Hg interval with the mean baseline value of intraocular pressure being 17.0±0.39 mm Hg for untreated animals (n=100). In order to avoid distress to the animal, rabbits were topically anesthetized (10 μl of oxibuprocaine/tetracaine, 0.4%/1%, in a saline solution (1/4 v:v)) prior to IOP measurement.\nCommercially available drugs were typically administered to the animals by instilling a small volume (typically 40 μl) on the corneal surface. Contralateral eyes were treated with the vehicle alone and were used as controls in each experiment.\nsiRNA molecules or commercially available drugs were typically administered to the animals as follows. Doses of siRNA in saline solution (0.9% w/v) to a final volume of 40 μl were applied to the corneal surface of one eye each day during four consecutive days. The opposite eye was taken as a control and 40 μl of sterile saline (0.9% w/v) was instilled on it at the same time points. Commercially available drugs were typically administered to the animals by instilling a small volume (typically 40 μl) on the corneal surface. Contralateral eyes were treated with the vehicle alone and were used as controls in each experiment. The IOP was measured before each application and at 2 h, 4 h and 6 h following the instillation for 10 days.\nThe data are summarized in Table 2 where values represent the mean of the normalized maximum percentage of IOP reduction after siRNA treatment and their standard deviations. The decrease in IOP was statistically significant for all the treated targets."}, "PTGS2": {"system": "PTGS2", "test": "siRNA transfection of cells, real time PCR of target gene expression", "assay_type": "cell-based", "conditions": "100 nM siRNA, mean ± SD", "protocol": "Cells (either NPE, OMDC, or HEK293 cells) were incubated with various siRNA molecules and assayed for expression of the native mRNA corresponding to the siRNA molecule. One day prior to transfection, 2−4×10^5 cells were seeded into each well of a 6 well plate in 3 ml of growth medium (DMEM, 10% serum, antibiotics and glutamine) and incubated under normal growth conditions (37° C. and 5% CO2). Lipofectamine 2000 Reagent (Invitrogen Corporation, Carlsbad, Calif.) was used to transfect the cells with the siRNA molecules. The protocol supplied by the manufacturer was followed. Briefly, siRNA molecules were added to cells that were 30%-50% confluent to a final concentration of 100 nM. Prior to addition to the cells, the siRNA molecule was diluted in 250 μl DMEM and incubated at room temperature for 5 minutes. The siRNA was then mixed with 6 μl of Lipofectamine 2000 Reagent that also had been diluted in 250 μl DMEM and the mixture was incubated at room temperature for 20 minutes. The siRNA/Lipofectamine mixture was added to the cells drop-wise with 2 ml of fresh growth medium low in antibiotics. After swirling the plates to ensure uniform distribution of the transfection complexes, the cells were incubated under normal growth conditions for 24 hours. After incubation with either of the transfection complexes, the medium was removed and replaced with 3 ml of fresh complete growth medium. mRNA was collected from cells at 24, 48 and 72 hours post-transfection.\nAfter transfection and incubation with a siRNA molecule, total RNA fractions were extracted from cells using protocols well known in the art. The effect of siRNAs on target gene expression was analyzed by real time PCR and semi-quantitative PCR according to standard protocols. Approximately 250 ng of total RNA was used for reverse transcription followed by PCR amplification with specific primers for the target gene in a reaction mixture containing SYBR Green I Dye (Applied Biosystems, Foster City, Calif.). Basic PCR conditions comprised an initial step of […], followed by 40 cycles of 5 s at 95° C., 10 s at 62° C. and 15 s at 72° C. Quantification of beta-actin mRNA was used as a control for data normalization.\nThe values represent the mean of the percentage of siRNA interference of each gene expression once normalized with the control cells and their standard deviations."}},
  "note": "d = 2'-deoxy (DNA)",
  "data": [
    {"substance": "SEQ ID NO: 1838: siRNA targeting rabbit carbonic anhydrase II; rabbit homolog of SEQ ID NO: 73 (GAUUGGCAGUGCUACACCA; 3' dTdT, sugars by position and backbone not given here; duplex siRNA; listed as Oryctolagus sp.)", "values": [
      {"measurement": "IOP Reduction (% of saline control)", "setting": "[1]", "result": "24.84 ± 3.41", "unit": "%"}
    ]},
    {"substance": "SEQ ID NO: 105: siRNA targeting adrenergic, beta-1-, receptor (ADRB1) (CGACCCCAAGUGCUGCGAC; 3' dTdT, sugars by position and backbone not given here; listed as Homo sapiens)", "values": [
      {"measurement": "decrease of IOP over a saline control", "setting": "[1]", "result": 25, "unit": "%"},
      {"measurement": "IOP Reduction (% of saline control)", "setting": "[1]", "result": "28.04 ± 2.98", "unit": "%"}
    ]},
    {"substance": "SEQ ID NO: 1860: siRNA targeting ACE1; rabbit homolog of SEQ ID NO: 866 (CUGGAACUAUAACACCAAC; two-thymidine 3' overhang, other chemistry not given here; listed as Oryctolagus sp.)", "values": [
      {"measurement": "IOP Reduction (% of saline control)", "setting": "[1]", "result": "17.51 ± 1.28", "unit": "%"}
    ]},
    {"substance": "SEQ ID NO: 426: siRNA targeting PTGS2 (prostaglandin endoperoxide synthase 2) (GCAGGCUAAUACUGAUAGG; 3' dTdT, sugars by position and backbone not given here; listed as Homo sapiens)", "values": [
      {"measurement": "% of gene transcript level in control cells", "setting": "PTGS2; 24 h post-transfection", "result": "68.68 ± 12.48", "unit": "%"},
      {"measurement": "% of gene transcript level in control cells", "setting": "PTGS2; 48 h post-transfection", "result": "70.17 ± 19.21", "unit": "%"},
      {"measurement": "decrease of IOP over a saline control", "setting": "[1]", "result": 22, "unit": "%"},
      {"measurement": "IOP Reduction (% of saline control)", "setting": "[1]", "result": "23.78 ± 2.27", "unit": "%"}
    ]},
    {"substance": "SEQ ID NO: 1850: siRNA targeting PTGS1; rabbit homolog of SEQ ID NO: 322 (CGUGAGCUAUUACACGCGU; 3' dTdT, sugars by position and backbone not given here; duplex siRNA; listed as Oryctolagus sp.)", "values": [
      {"measurement": "IOP Reduction (% of saline control)", "setting": "[1]", "result": "14.62 ± 1.93", "unit": "%"}
    ]},
    {"substance": "SEQ ID NO: 522: siRNA targeting carbonic anhydrase XII (CA12) (AUGAUCAACAACUUCCGGC; two-thymidine 3' overhang, other chemistry not given here; listed as Homo sapiens)", "values": [
      {"measurement": "IOP Reduction (% of saline control)", "setting": "[1]", "result": "24.30 ± 1.29", "unit": "%"}
    ]},
    {"substance": "SEQ ID NO: 477: siRNA targeting PTGS2 (CACUGCCUCAAUUCAGUCU; 3' dTdT, sugars by position and backbone not given here; listed as Homo sapiens)", "values": [
      {"measurement": "% of gene transcript level in control cells", "setting": "PTGS2; 24 h post-transfection", "result": "75.45 ± 14.71", "unit": "%"},
      {"measurement": "% of gene transcript level in control cells", "setting": "PTGS2; 48 h post-transfection", "result": "61.83 ± 16.96", "unit": "%"}
    ]},
    {"substance": "SEQ ID NO: 421: siRNA targeting PTGS2 (CACAACAGAGUAUGCGAUG; 3' dTdT, sugars by position and backbone not given here; listed as Homo sapiens)", "values": [
      {"measurement": "% of gene transcript level in control cells", "setting": "PTGS2; 24 h post-transfection", "result": "81.00 ± 13.54", "unit": "%"},
      {"measurement": "% of gene transcript level in control cells", "setting": "PTGS2; 48 h post-transfection", "result": "66.85 ± 18.67", "unit": "%"}
    ]},
    {"substance": "SEQ ID NO: 139: siRNA targeting human adrenergic, beta-2-, receptor (ADRB2) (CAUUGUGCAUGUGAUCCAG; listed as RNA, chemistry not given here; listed as Homo sapiens)", "values": [
      {"measurement": "decrease of IOP over a saline control", "setting": "[1]", "result": 22, "unit": "%"}
    ]},
    {"substance": "SEQ ID NO: 1856: siRNA, rabbit homolog of SEQ ID NO: 546; target printed ADRAIA (GACCGACAAAUCCGACUCG; 3' dTdT, sugars by position and backbone not given here; duplex siRNA; listed as Oryctolagus sp.)", "values": [
      {"measurement": "IOP Reduction (% of saline control)", "setting": "[1]", "result": "9.51 ± 1.04", "unit": "%"}
    ]},
    {"substance": "SEQ ID NO: 1859: siRNA targeting AGTR1; rabbit homolog of SEQ ID NO: 705 (ACUCAAGACUGUGGCCAGU; 3' dTdT, sugars by position and backbone not given here; duplex siRNA; listed as Oryctolagus sp.)", "values": [
      {"measurement": "IOP Reduction (% of saline control)", "setting": "[1]", "result": "9.72 ± 1.35", "unit": "%"}
    ]},
    {"substance": "SEQ ID NO: 774: siRNA targeting AGTR2 (angiotensin II receptor, type 2) (GCAUCUUAUAUAGUUCCCC; two-thymidine 3' overhang, other chemistry not given here; listed as Homo sapiens)", "values": [
      {"measurement": "IOP Reduction (% of saline control)", "setting": "[1]", "result": "11.22 ± 1.53", "unit": "%"}
    ]},
    {"substance": "SEQ ID NO: 1858: siRNA, rabbit homolog of SEQ ID NO: 619; target printed ADRAM (GAACUUUCAUGAGGACACC; 3' dTdT, sugars by position and backbone not given here; duplex siRNA; listed as Oryctolagus sp.)", "values": [
      {"measurement": "IOP Reduction (% of saline control)", "setting": "[1]", "result": "17.48 ± 1.30", "unit": "%"}
    ]},
    {"substance": "SEQ ID NO: 1841: siRNA targeting rabbit adrenergic, beta-2-, receptor; rabbit homolog of SEQ ID NO: 139 (CAUCGUGCACGUGAUCCAG; 3' dTdT, sugars by position and backbone not given here; duplex siRNA; listed as Oryctolagus sp.)", "values": [
      {"measurement": "IOP Reduction (% of saline control)", "setting": "[1]", "result": "21.18 ± 1.88", "unit": "%"}
    ]},
    {"substance": "SEQ ID NO: 1848: siRNA targeting rabbit selectin E (SELE); rabbit homolog of SEQ ID NO: 262 (GCCAACUUGUAAAGCUGUG; 3' dTdT, sugars by position and backbone not given here; duplex siRNA; listed as Oryctolagus sp.)", "values": [
      {"measurement": "IOP Reduction (% of saline control)", "setting": "[1]", "result": "21.80 ± 1.74", "unit": "%"}
    ]},
    {"substance": "SEQ ID NO: 189: siRNA targeting human acetylcholinesterase (ACHE) (CCGUGAGCUGAGCGAGGAC; two-thymidine 3' overhang, other chemistry not given here; listed as Homo sapiens)", "values": [
      {"measurement": "decrease of IOP over a saline control", "setting": "[1]", "result": 25, "unit": "%"}
    ]},
    {"substance": "SEQ ID NO: 1846: siRNA targeting rabbit acetylcholinesterase; rabbit homolog of SEQ ID NO: 189 (CCGUGAGCUGAGUGAGGAC; two-thymidine 3' overhang, other chemistry not given here; listed as Oryctolagus sp.)", "values": [
      {"measurement": "IOP Reduction (% of saline control)", "setting": "[1]", "result": "25.25 ± 2.70", "unit": "%"}
    ]},
    {"substance": "SEQ ID NO: 1820: siRNA targeting ATP1B2 (ATPase, Na+/K+ transporting, beta 2 polypeptide) (GUUCCACGUGAACUACACA; 3' dTdT, sugars by position and backbone not given here; duplex siRNA; listed as Homo sapiens)", "values": [
      {"measurement": "IOP Reduction (% of saline control)", "setting": "[1]", "result": "16.32 ± 0.91", "unit": "%"}
    ]},
    {"substance": "SEQ ID NO: 1399: siRNA targeting ATP1A1 (ATPase, Na+/K+ transporting, alpha 1 polypeptide) (CUGGAACUCUGACUCAGAA; 3' dTdT, sugars by position and backbone not given here; listed as Homo sapiens)", "values": [
      {"measurement": "IOP Reduction (% of saline control)", "setting": "[1]", "result": "18.13 ± 1.39", "unit": "%"}
    ]},
    {"substance": "SEQ ID NO: 5: siRNA targeting carbonic anhydrase IV (CA4) (CAUCGUCACCACCAAGGCA; two-thymidine 3' overhang, other chemistry not given here; listed as Homo sapiens)", "values": [
      {"measurement": "decrease of IOP over a saline control", "setting": "[1]", "result": 16, "unit": "%"},
      {"measurement": "IOP Reduction (% of saline control)", "setting": "[1]", "result": "14.47 ± 5.00", "unit": "%"}
    ]}
  ]
}
